Test results reported in ChEMBL document CHEMBL2202975, “Inhibition of monoamine oxidase by 8-[(phenylethyl)sulfanyl]caffeine analogues” (Bioorg Med Chem, 2012).

Legend:
[1] = target: T1, Amine oxidase [flavin-containing] B (Homo sapiens, UniProt P27338)
T1 sequence (P27338 whole entry): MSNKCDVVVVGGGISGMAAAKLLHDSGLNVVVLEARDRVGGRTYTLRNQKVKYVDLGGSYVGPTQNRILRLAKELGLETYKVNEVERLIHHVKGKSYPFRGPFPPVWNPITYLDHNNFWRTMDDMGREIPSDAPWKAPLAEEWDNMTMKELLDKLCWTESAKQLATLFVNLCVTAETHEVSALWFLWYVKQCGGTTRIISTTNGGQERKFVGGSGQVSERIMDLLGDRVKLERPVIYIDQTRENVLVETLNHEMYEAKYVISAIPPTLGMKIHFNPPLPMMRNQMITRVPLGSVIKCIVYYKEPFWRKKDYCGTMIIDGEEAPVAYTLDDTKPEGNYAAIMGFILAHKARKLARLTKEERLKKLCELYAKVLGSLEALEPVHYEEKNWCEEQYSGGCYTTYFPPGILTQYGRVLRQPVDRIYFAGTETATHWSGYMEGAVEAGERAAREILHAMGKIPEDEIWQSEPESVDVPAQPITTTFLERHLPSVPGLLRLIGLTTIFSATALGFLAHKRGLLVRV
Description: Inhibition of human recombinant MAO-B expressed in insect cell microsome assessed as 4-hydroxyquinoline formation using kynuramine as substrate after 20 mins by fluorescence spectrophotometry

[2] = target: T2, Amine oxidase [flavin-containing] A (Homo sapiens, UniProt P21397); assay: Inhibition of human recombinant MAO-A expressed in insect cell microsome assessed as 4-hydroxyquinoline formation using kynuramine as substrate after 20 mins by fluorescence spectrophotometry; type: microsomes
T2 sequence (P21397 whole entry): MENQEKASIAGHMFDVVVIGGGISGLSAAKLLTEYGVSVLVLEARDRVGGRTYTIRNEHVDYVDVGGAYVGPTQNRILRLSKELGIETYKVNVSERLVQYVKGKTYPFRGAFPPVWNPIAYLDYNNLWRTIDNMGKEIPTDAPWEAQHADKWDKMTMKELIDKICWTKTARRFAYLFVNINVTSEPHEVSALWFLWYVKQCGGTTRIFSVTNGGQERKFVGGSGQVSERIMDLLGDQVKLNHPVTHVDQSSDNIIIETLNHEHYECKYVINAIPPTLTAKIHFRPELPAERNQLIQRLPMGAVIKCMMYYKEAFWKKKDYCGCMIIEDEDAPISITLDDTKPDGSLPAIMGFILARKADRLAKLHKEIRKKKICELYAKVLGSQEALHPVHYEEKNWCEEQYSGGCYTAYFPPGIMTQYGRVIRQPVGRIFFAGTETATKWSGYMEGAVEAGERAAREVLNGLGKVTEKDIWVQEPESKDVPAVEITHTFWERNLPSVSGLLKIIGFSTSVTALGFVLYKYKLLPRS

Homo sapiens = species: Homo sapiens; assay: Selectivity index, ratio of IC50 for human recombinant MAO-A to IC50 for human recombinant MAO-B
[3] = Octanol-water partition coefficient, log P of the compound by shake flask method; type: physicochemical
[4] = target: T1, Amine oxidase [flavin-containing] B; assay: Competitive inhibition of human recombinant MAO-B expressed in insect cell microsome using kynuramine as substrate by Lineweaver-Burk plot analysis; type: microsomes
[5] = target: T1, Amine oxidase [flavin-containing] B; assay: (§1) Reversible inhibition of human recombinant MAO-B expressed in insect cell microsome assessed as 4-hydroxyquinoline formation using kynuramine as substrate preincubated for 15 to 60 mins at 2 times IC50 measured after 15 mins following twofold compound dilution with addition of substrate by fluorescence spectrophotometry; type: microsomes; settings: 0.25 h
[6] = target: T1, Amine oxidase [flavin-containing] B; assay: as §1, with “Time dependent” for “Reversible”; type: microsomes; settings: 0.25 h
[7] = target: T1, Amine oxidase [flavin-containing] B; assay: as §1, with “enzyme activity recovery” for “4-hydroxyquinoline formation”, “30” for “15 to 60”, “100xIC50” for “2 times IC50”, “20” for “15”, “100-fold” for “twofold”; type: microsomes; design: scale not given: the % may be the effect or the level left
[8] = target: T2, Amine oxidase [flavin-containing] A; assay: as §1, with “MAO-A” for “MAO-B”; type: microsomes; settings: 0.25 h
[9] = target: T1, Amine oxidase [flavin-containing] B; assay: Competitive inhibition of human recombinant MAO-B expressed in insect cell microsome using kynuramine as substrate by Morrison equation analysis; type: microsomes
[10] = target: T2, Amine oxidase [flavin-containing] A; assay: Inhibition of human recombinant MAO-A expressed in insect cell microsome assessed as 4-hydroxyquinoline formation using kynuramine as substrate at 100 uM after 20 mins by fluorescence spectrophotometry; type: microsomes

IC50 [1] [µM]	IC50 [2] [µM]	Ratio IC50 (Homo sapiens)	logP [3]	Structure (SMILES)	further results
0.199	37.9	190	–	Cn1c(=O)c2c(nc(SCc3cccc(Br)c3)n2C)n(C)c1=O	–
–	6.48	–	3.3	Cn1c(=O)c2c(nc(SCCCc3ccccc3)n2C)n(C)c1=O	–
131	250	2	–	Cn1c(=O)c2c(nc([S+]([O-])Cc3ccccc3)n2C)n(C)c1=O (stereo unspecified)	–
0.043	5.66	132	–	Cn1c(=O)c2c(nc(SCCc3cccc(Cl)c3)n2C)n(C)c1=O	–
0.061	0.708	12	3.59	Cn1c(=O)c2c(nc(SCCCc3ccc(Cl)cc3)n2C)n(C)c1=O	–
0.023	168	7300	2.55	COc1ccc(CCSc2nc3c(c(=O)n(C)c(=O)n3C)n2C)cc1	–
0.062	3.53	57	3.76	Cn1c(=O)c2c(nc(SCCCc3cccc(Cl)c3)n2C)n(C)c1=O	–
0.271	18.7	69	3.22	Cn1c(=O)c2c(nc(SCCc3ccccc3)n2C)n(C)c1=O	–
0.071	14.7	207	–	Cn1c(=O)c2c(nc(SCCc3ccc(F)cc3)n2C)n(C)c1=O	–
0.125	48.1	385	–	COc1cccc(CCSc2nc3c(c(=O)n(C)c(=O)n3C)n2C)c1	–
3.5	239	68	–	Cn1c(=O)c2c(nc([S+]([O-])CCc3ccc(F)cc3)n2C)n(C)c1=O (stereo unspecified)	–
0.072	125	1740	3.15	Cc1ccc(CCSc2nc3c(c(=O)n(C)c(=O)n3C)n2C)cc1	–
0.781	203	260	–	Cn1c(=O)c2c(nc([S+]([O-])CCc3ccc(Cl)cc3)n2C)n(C)c1=O (stereo unspecified)	–
0.04	5.7	143	–	Cn1c(=O)c2c(nc(SCCc3cccc(Br)c3)n2C)n(C)c1=O	–
0.02	8.46	423	–	Cn1c(=O)c2c(nc(SCCc3ccc(Cl)cc3)n2C)n(C)c1=O	Ki [4]: 0.013 µM; inhibition (INH) [5]: Active; inhibition (INH) [6]: Active; Activity [7]: 26%; inhibition (INH) [8]: Active; Ki [9]: 0.0098 µM
0.471	57.3	122	–	Cn1c(=O)c2c(nc([S+]([O-])CCc3ccc(Br)cc3)n2C)n(C)c1=O (stereo unspecified)	–
0.051	12	235	–	Cc1cccc(CCSc2nc3c(c(=O)n(C)c(=O)n3C)n2C)c1	–
0.019	–	–	3.21	Cn1c(=O)c2c(nc(SCCc3ccc(C(F)(F)F)cc3)n2C)n(C)c1=O	inhibition (INH) [10]: Not Active
0.017	141	8290	3.14	Cn1c(=O)c2c(nc(SCCc3cccc(C(F)(F)F)c3)n2C)n(C)c1=O	Activity [7]: 22%
0.227	6.43	28	–	Cn1c(=O)c2c(nc(SCc3cccc(Cl)c3)n2C)n(C)c1=O	–
0.019	108	5680	2.98	Cn1c(=O)c2c(nc(SCCc3ccc(Br)cc3)n2C)n(C)c1=O	–
